Results: ChEMBL document CHEMBL1201862, “PubChem BioAssay data set” (2004)
Active and inactive are the calls of the source. Unless noted, no cut-off for these calls is given here.

How the values were obtained:
Type in all cases: functional
[1] = molecular target: Mitogen-activated protein kinase 10 (Homo sapiens, UniProt P53779); experiment: Navigating the Kinome. Panel member name: MAPK10
[2] = molecular target: MAP/microtubule affinity-regulating kinase 3 (Homo sapiens, UniProt P27448);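 note: MARK3 affinity measured as one member of a kinome panel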
Hexokinase HKDC1 = molecular target: T1, Hexokinase HKDC1 (Homo sapiens, UniProt Q2TB90); experiment: inhibition of HKDC1 glucose phosphorylation – biochemical, W721R variant, dose response (AID 504729)
T1 sequence (Q2TB90 whole entry): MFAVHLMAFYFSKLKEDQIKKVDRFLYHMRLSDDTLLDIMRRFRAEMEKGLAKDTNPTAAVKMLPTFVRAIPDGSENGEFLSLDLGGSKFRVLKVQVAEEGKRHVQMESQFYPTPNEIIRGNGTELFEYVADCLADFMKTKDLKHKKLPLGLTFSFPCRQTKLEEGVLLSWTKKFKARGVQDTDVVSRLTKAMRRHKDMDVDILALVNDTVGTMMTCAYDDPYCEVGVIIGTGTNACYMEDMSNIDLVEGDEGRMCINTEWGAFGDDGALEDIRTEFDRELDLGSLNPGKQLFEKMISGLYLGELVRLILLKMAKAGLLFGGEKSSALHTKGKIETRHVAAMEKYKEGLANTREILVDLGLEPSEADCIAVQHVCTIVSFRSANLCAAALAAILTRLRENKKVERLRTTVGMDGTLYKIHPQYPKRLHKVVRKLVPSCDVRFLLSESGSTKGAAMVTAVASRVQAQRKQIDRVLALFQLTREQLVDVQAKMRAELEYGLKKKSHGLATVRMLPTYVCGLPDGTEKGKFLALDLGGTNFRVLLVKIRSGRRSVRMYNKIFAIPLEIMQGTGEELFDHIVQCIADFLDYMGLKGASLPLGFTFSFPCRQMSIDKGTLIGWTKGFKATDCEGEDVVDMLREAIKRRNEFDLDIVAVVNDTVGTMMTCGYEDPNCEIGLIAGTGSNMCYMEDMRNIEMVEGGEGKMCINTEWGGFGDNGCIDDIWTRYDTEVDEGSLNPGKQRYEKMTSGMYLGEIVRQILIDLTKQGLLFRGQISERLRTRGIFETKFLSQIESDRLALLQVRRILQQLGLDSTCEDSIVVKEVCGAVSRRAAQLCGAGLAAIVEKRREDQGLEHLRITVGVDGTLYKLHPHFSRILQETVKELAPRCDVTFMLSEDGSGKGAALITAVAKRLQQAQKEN

Mitogen-activated protein kinase 10, sequence (P53779 whole entry): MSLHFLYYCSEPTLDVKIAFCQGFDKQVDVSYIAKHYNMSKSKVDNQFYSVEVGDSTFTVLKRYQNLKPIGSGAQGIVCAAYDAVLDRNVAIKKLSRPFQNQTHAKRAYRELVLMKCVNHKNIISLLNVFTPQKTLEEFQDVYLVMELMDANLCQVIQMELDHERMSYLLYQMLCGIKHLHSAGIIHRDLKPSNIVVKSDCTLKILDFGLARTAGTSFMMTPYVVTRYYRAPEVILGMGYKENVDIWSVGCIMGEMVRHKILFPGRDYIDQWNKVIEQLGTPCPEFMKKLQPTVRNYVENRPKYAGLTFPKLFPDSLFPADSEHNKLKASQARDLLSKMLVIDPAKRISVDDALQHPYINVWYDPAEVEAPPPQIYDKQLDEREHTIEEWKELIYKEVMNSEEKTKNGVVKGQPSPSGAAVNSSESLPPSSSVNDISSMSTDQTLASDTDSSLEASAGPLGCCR
MAP/microtubule affinity-regulating kinase 3, sequence (P27448 whole entry): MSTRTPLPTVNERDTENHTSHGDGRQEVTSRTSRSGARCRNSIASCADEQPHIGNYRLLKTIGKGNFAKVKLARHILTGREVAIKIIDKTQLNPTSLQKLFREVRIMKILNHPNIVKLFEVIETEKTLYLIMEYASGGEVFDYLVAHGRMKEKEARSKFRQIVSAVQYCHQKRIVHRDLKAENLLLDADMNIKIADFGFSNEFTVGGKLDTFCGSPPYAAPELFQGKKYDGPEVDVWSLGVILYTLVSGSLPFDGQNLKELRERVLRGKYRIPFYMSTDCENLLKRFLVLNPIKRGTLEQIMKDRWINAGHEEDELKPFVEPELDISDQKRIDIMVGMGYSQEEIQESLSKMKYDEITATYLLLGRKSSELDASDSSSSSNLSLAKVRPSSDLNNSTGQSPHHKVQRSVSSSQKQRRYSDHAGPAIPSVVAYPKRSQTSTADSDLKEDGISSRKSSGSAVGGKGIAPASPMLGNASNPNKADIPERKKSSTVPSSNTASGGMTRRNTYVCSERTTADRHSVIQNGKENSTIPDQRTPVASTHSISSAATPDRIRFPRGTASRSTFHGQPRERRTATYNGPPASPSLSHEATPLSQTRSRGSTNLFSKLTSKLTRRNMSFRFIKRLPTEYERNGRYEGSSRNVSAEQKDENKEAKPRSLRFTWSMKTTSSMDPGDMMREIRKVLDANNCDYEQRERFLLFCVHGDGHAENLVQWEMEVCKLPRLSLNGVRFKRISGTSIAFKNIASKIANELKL

Ki [1]	Ki [2]	Structure (SMILES)	IC50 (Hexokinase HKDC1)
> 3.16 µM (inactive)	0.158 µM (active)	CCC1CC(NS(=O)(=O)C2CC2)CC1c1ncc2cnc3[nH]ccc3n12 (stereo not drawn)	
		Cc1cc(C)c(S(=O)(=O)/N=C2\C=C(Nc3ccc(C(=O)O)cc3)C(=O)c3ccccc32)c(C)c1	15.2 µM (active)
